Measurements reported in ChEMBL document CHEMBL6134890, “Terminally Symmetric β-Turn Peptides for Multidrug-Resistant Bacterial Infections” (J Med Chem, 2025).
Values after ≈ are worked out from the molar mass of the structure shown. Bridge positions count the residues as written; N and C are the ends. Square brackets hold non-standard residues; d marks the D form. Peptide text beside a SMILES is read from it. * marks the point of attachment. X1 = CC[C@H](C)CCCCC(=O)*; Dab = NCC[C@H](N)C(=O)O

Key:
Acinetobacter baumannii = experiment: Antimicrobial activity against multi-drug resistant Acinetobacter baumannii assessed as reduction in bacterial growth by broth dilution method; assay type: functional
Staphylococcus aureus [1] = experiment: Antimicrobial activity against Staphylococcus aureus ATCC 25923 assessed as reduction in bacterial growth by broth dilution method; assay type: functional
Enterococcus faecalis = experiment: Antimicrobial activity against multi-drug resistant Enterococcus faecalis assessed as reduction in bacterial growth by broth dilution method; assay type: functional
[2] = Hemolytic activity in human Red blood cell assessed as hemolysis incubated for 1 hrs by microplate reader based analysis; assay type: toxicity; conditions: erythrocyte
[3] = test system: Staphylococcus epidermidis; experiment: Antimicrobial activity against multi-drug resistant Staphylococcus epidermidis assessed as reduction in bacterial growth by broth dilution method; assay type: functional
Escherichia coli [4] = experiment: Antimicrobial activity against Escherichia coli ATCC 25922 assessed as reduction in bacterial growth by broth dilution method; assay type: functional
Klebsiella pneumoniae = experiment: Antimicrobial activity against multi-drug resistant Klebsiella pneumoniae assessed as reduction in bacterial growth by broth dilution method; assay type: functional
Escherichia coli [5] = experiment: Antimicrobial activity against multi-drug resistant Escherichia coli assessed as reduction in bacterial growth by broth dilution method; assay type: functional
Staphylococcus aureus [6] = experiment: Antimicrobial activity against multi-drug resistant Staphylococcus aureus assessed as reduction in bacterial growth by broth dilution method; assay type: functional

Row | SMILES | MIC (Acinetobacter baumannii) [µM] | MIC (Staphylococcus aureus [1]) [µM] | MIC (Enterococcus faecalis) [µM] | HC10 [2] [µM] | MIC [3] [µM] | MIC (Escherichia coli [4]) [µM] | MIC (Klebsiella pneumoniae) [µM] | MIC (Escherichia coli [5]) [µM] | MIC (Staphylococcus aureus [6]) [µM]
1 | CC[C@H](C)[C@H](N)C(=O)N[C@@H](CCCCN)C(=O)N[C@H](C(=O)N[C@@H](CCCCN)C(=O)N[C@@H](Cc1ccccc1)C(=O)N1CCC[C@H]1C(=O)N[C@@H](Cc1c[nH]c2ccccc12)C(=O)N[C@@H](Cc1c[nH]c2ccccc12)C(=O)N[C@@H](Cc1c[nH]c2ccccc12)C(=O)N1CCC[C@H]1C(=O)N[C@@H](Cc1ccccc1)C(=O)N[C@@H](CCCCN)C(=O)N[C@H](C(=O)N[C@@H](CCCCN)C(=O)N[C@H](C(N)=O)[C@@H](C)CC)[C@@H](C)CC)[C@@H](C)CC (H-IKIKFPWWWPFKIKI-NH2) | 16 (≈ 32.5 µg/mL) | 16 (≈ 32.5 µg/mL) | 16 (≈ 32.5 µg/mL) | 9.48 | 16 (≈ 32.5 µg/mL) | 16 (≈ 32.5 µg/mL) | 256 (≈ 520 µg/mL) | 32 (≈ 64.9 µg/mL) | 16 (≈ 32.5 µg/mL)
2 | CC[C@H](C)[C@H](N)C(=O)N[C@@H](CCCCN)C(=O)N[C@H](C(=O)N[C@@H](CCCCN)C(=O)N[C@H](C(=O)N[C@@H](CCCCN)C(=O)N[C@@H](Cc1ccccc1)C(=O)N1CCC[C@H]1C(=O)N[C@@H](Cc1c[nH]c2ccccc12)C(=O)N[C@@H](Cc1c[nH]c2ccccc12)C(=O)N[C@@H](Cc1c[nH]c2ccccc12)C(=O)N1CCC[C@H]1C(=O)N[C@@H](Cc1ccccc1)C(=O)N[C@@H](CCCCN)C(=O)N[C@H](C(=O)N[C@@H](CCCCN)C(=O)N[C@H](C(=O)N[C@@H](CCCCN)C(=O)N[C@H](C(N)=O)[C@@H](C)CC)[C@@H](C)CC)[C@@H](C)CC)[C@@H](C)CC)[C@@H](C)CC (H-IKIKIKFPWWWPFKIKIKI-NH2) | 128 (≈ 322 µg/mL) | 128 (≈ 322 µg/mL) | 128 (≈ 322 µg/mL) | 6.56 | 128 (≈ 322 µg/mL) | 128 (≈ 322 µg/mL) | 64 (≈ 161 µg/mL) | 128 (≈ 322 µg/mL) | 64 (≈ 161 µg/mL)
3 | CC[C@H](C)[C@H](N)C(=O)N[C@@H](CCCCN)C(=O)N[C@H](C(=O)N[C@@H](CCCCN)C(=O)N[C@H](C(=O)N[C@@H](CCCCN)C(=O)N1CCC[C@H]1C(=O)N[C@@H](Cc1c[nH]c2ccccc12)C(=O)N[C@@H](Cc1c[nH]c2ccccc12)C(=O)N[C@@H](Cc1c[nH]c2ccccc12)C(=O)N1CCC[C@H]1C(=O)N[C@@H](CCCCN)C(=O)N[C@H](C(=O)N[C@@H](CCCCN)C(=O)N[C@H](C(=O)N[C@@H](CCCCN)C(=O)N[C@H](C(N)=O)[C@@H](C)CC)[C@@H](C)CC)[C@@H](C)CC)[C@@H](C)CC)[C@@H](C)CC (H-IKIKIKPWWWPKIKIKI-NH2) | 64 (≈ 142 µg/mL) | 4 (≈ 8.87 µg/mL) | 2 (≈ 4.44 µg/mL) | 116.64 | 2 (≈ 4.44 µg/mL) | 64 (≈ 142 µg/mL) | 64 (≈ 142 µg/mL) | 64 (≈ 142 µg/mL) | 8 (≈ 17.7 µg/mL)
4 | CC[C@H](C)[C@H](N)C(=O)N[C@@H](CCCCN)C(=O)N[C@H](C(=O)N[C@@H](CCCCN)C(=O)N1CCC[C@H]1C(=O)N[C@@H](Cc1c[nH]c2ccccc12)C(=O)N[C@@H](Cc1c[nH]c2ccccc12)C(=O)N[C@@H](Cc1c[nH]c2ccccc12)C(=O)N1CCC[C@H]1C(=O)N[C@@H](CCCCN)C(=O)N[C@H](C(=O)N[C@@H](CCCCN)C(=O)N[C@H](C(N)=O)[C@@H](C)CC)[C@@H](C)CC)[C@@H](C)CC (H-IKIKPWWWPKIKI-NH2) | 16 (≈ 27.8 µg/mL) | 8 (≈ 13.9 µg/mL) | 16 (≈ 27.8 µg/mL) | > 256 | 16 (≈ 27.8 µg/mL) | 16 (≈ 27.8 µg/mL) | 64 (≈ 111 µg/mL) | 16 (≈ 27.8 µg/mL) | 8 (≈ 13.9 µg/mL)
5 | NCCCC[C@H](NC(=O)[C@H](Cc1ccccc1)NC(=O)[C@H](CCCCN)NC(=O)[C@H](Cc1ccccc1)NC(=O)[C@H](CCCCN)NC(=O)[C@H](Cc1ccccc1)NC(=O)[C@@H]1CCCN1C(=O)[C@H](Cc1c[nH]c2ccccc12)NC(=O)[C@H](Cc1c[nH]c2ccccc12)NC(=O)[C@H](Cc1c[nH]c2ccccc12)NC(=O)[C@@H]1CCCN1C(=O)[C@H](Cc1ccccc1)NC(=O)[C@H](CCCCN)NC(=O)[C@H](Cc1ccccc1)NC(=O)[C@H](CCCCN)NC(=O)[C@H](Cc1ccccc1)NC(=O)[C@@H](N)CCCCN)C(N)=O (H-KFKFKFPWWWPFKFKFK-NH2) | 4 (≈ 9.69 µg/mL) | 8 (≈ 19.4 µg/mL) | 4 (≈ 9.69 µg/mL) | 6.39 | 4 (≈ 9.69 µg/mL) | 8 (≈ 19.4 µg/mL) | 16 (≈ 38.8 µg/mL) | 8 (≈ 19.4 µg/mL) | 8 (≈ 19.4 µg/mL)
6 | CC[C@H](C)[C@H](NC(=O)[C@H](CCCCN)NC(=O)[C@@H](NC(=O)[C@H](Cc1ccccc1)NC(=O)[C@@H]1CCCN1C(=O)[C@H](Cc1c[nH]c2ccccc12)NC(=O)[C@H](Cc1c[nH]c2ccccc12)NC(=O)[C@H](Cc1c[nH]c2ccccc12)NC(=O)[C@@H]1CCCN1C(=O)[C@H](Cc1ccccc1)NC(=O)[C@@H](NC(=O)[C@H](CCCCN)NC(=O)[C@@H](NC(=O)[C@@H](N)CCCCN)[C@@H](C)CC)[C@@H](C)CC)[C@@H](C)CC)C(=O)N[C@@H](CCCCN)C(N)=O (H-KIKIFPWWWPFIKIK-NH2) | 8 (≈ 16.2 µg/mL) | 8 (≈ 16.2 µg/mL) | 16 (≈ 32.5 µg/mL) | 4.32 | 8 (≈ 16.2 µg/mL) | 8 (≈ 16.2 µg/mL) | 256 (≈ 520 µg/mL) | 16 (≈ 32.5 µg/mL) | 8 (≈ 16.2 µg/mL)
7 | CC[C@H](C)[C@H](NC(=O)[C@H](CCCCN)NC(=O)[C@@H](NC(=O)[C@H](CCCCN)NC(=O)[C@H](Cc1ccccc1)NC(=O)[C@@H]1CCCN1C(=O)[C@H](Cc1c[nH]c2ccccc12)NC(=O)[C@H](Cc1c[nH]c2ccccc12)NC(=O)[C@H](Cc1c[nH]c2ccccc12)NC(=O)[C@@H]1CCCN1C(=O)[C@H](Cc1ccccc1)NC(=O)[C@H](CCCCN)NC(=O)[C@@H](NC(=O)[C@H](CCCCN)NC(=O)[C@@H](NC(=O)[C@@H](N)CCCCN)[C@@H](C)CC)[C@@H](C)CC)[C@@H](C)CC)C(=O)N[C@@H](CCCCN)C(N)=O (H-KIKIKFPWWWPFKIKIK-NH2) | 8 (≈ 18.3 µg/mL) | 4 (≈ 9.14 µg/mL) | 4 (≈ 9.14 µg/mL) | 29.44 | 8 (≈ 18.3 µg/mL) | 16 (≈ 36.6 µg/mL) | 32 (≈ 73.2 µg/mL) | 8 (≈ 18.3 µg/mL) | 4 (≈ 9.14 µg/mL)
8 | CC[C@H](C)[C@H](NC(=O)[C@H](CCCCN)NC(=O)[C@@H](NC(=O)[C@H](CCCCN)NC(=O)[C@@H](NC(=O)[C@H](Cc1ccccc1)NC(=O)[C@@H]1CCCN1C(=O)[C@H](Cc1c[nH]c2ccccc12)NC(=O)[C@H](Cc1c[nH]c2ccccc12)NC(=O)[C@H](Cc1c[nH]c2ccccc12)NC(=O)[C@@H]1CCCN1C(=O)[C@H](Cc1ccccc1)NC(=O)[C@@H](NC(=O)[C@H](CCCCN)NC(=O)[C@@H](NC(=O)[C@H](CCCCN)NC(=O)[C@@H](NC(=O)[C@@H](N)CCCCN)[C@@H](C)CC)[C@@H](C)CC)[C@@H](C)CC)[C@@H](C)CC)[C@@H](C)CC)C(=O)N[C@@H](CCCCN)C(N)=O (H-KIKIKIFPWWWPFIKIKIK-NH2) | 128 (≈ 322 µg/mL) | 128 (≈ 322 µg/mL) | 64 (≈ 161 µg/mL) | 7.28 | 128 (≈ 322 µg/mL) | 128 (≈ 322 µg/mL) | 64 (≈ 161 µg/mL) | 128 (≈ 322 µg/mL) | 128 (≈ 322 µg/mL)
9 | CC[C@H](C)[C@H](NC(=O)[C@H](CCCCN)NC(=O)[C@@H](NC(=O)[C@H](CCCCN)NC(=O)[C@@H](NC(=O)[C@@H]1CCCN1C(=O)[C@H](Cc1c[nH]c2ccccc12)NC(=O)[C@H](Cc1c[nH]c2ccccc12)NC(=O)[C@H](Cc1c[nH]c2ccccc12)NC(=O)[C@@H]1CCCN1C(=O)[C@@H](NC(=O)[C@H](CCCCN)NC(=O)[C@@H](NC(=O)[C@H](CCCCN)NC(=O)[C@@H](NC(=O)[C@@H](N)CCCCN)[C@@H](C)CC)[C@@H](C)CC)[C@@H](C)CC)[C@@H](C)CC)[C@@H](C)CC)C(=O)N[C@@H](CCCCN)C(N)=O (H-KIKIKIPWWWPIKIKIK-NH2) | 64 (≈ 142 µg/mL) | 4 (≈ 8.87 µg/mL) | 8 (≈ 17.7 µg/mL) | 33.38 | 8 (≈ 17.7 µg/mL) | 16 (≈ 35.5 µg/mL) | 16 (≈ 35.5 µg/mL) | 16 (≈ 35.5 µg/mL) | 8 (≈ 17.7 µg/mL)
10 | CC[C@H](C)[C@H](NC(=O)[C@H](CCCCN)NC(=O)[C@@H](NC(=O)[C@@H]1CCCN1C(=O)[C@H](Cc1c[nH]c2ccccc12)NC(=O)[C@H](Cc1c[nH]c2ccccc12)NC(=O)[C@H](Cc1c[nH]c2ccccc12)NC(=O)[C@@H]1CCCN1C(=O)[C@@H](NC(=O)[C@H](CCCCN)NC(=O)[C@@H](NC(=O)[C@@H](N)CCCCN)[C@@H](C)CC)[C@@H](C)CC)[C@@H](C)CC)C(=O)N[C@@H](CCCCN)C(N)=O (H-KIKIPWWWPIKIK-NH2) | 16 (≈ 27.8 µg/mL) | 4 (≈ 6.94 µg/mL) | 8 (≈ 13.9 µg/mL) | > 256 | 16 (≈ 27.8 µg/mL) | 8 (≈ 13.9 µg/mL) | 32 (≈ 55.5 µg/mL) | 8 (≈ 13.9 µg/mL) | 4 (≈ 6.94 µg/mL)
11 | CC(C)CCCCC(=O)N[C@@H](CCN)C(=O)N[C@H](C(=O)N[C@@H](CCN)C(=O)N[C@H]1CCNC(=O)[C@H]([C@@H](C)O)NC(=O)[C@H](CCN)NC(=O)[C@H](CCN)NC(=O)[C@H](CC(C)C)NC(=O)[C@@H](Cc2ccccc2)NC(=O)[C@H](CCN)NC1=O)[C@@H](C)O.CC[C@H](C)CCCCC(=O)N[C@@H](CCN)C(=O)N[C@H](C(=O)N[C@@H](CCN)C(=O)N[C@H]1CCNC(=O)[C@H]([C@@H](C)O)NC(=O)[C@H](CCN)NC(=O)[C@H](CCN)NC(=O)[C@H](CC(C)C)NC(=O)[C@@H](Cc2ccccc2)NC(=O)[C@H](CCN)NC1=O)[C@@H](C)O (X1-[Dab]T[Dab][Dab][Dab][dF]L[Dab][Dab]T; lactam 4-C) | 2 | 16 | 128 | – | 16 | 2 | 2 | 2 | 16
